How the values were obtained:
red blood cells = experiment: ODC of washed red blood cells in Hemox solution; type: cell-based, human; details: for P50 of red blood cells: mixed 1 h at 37° C.
From the text: For the reduction of P50, less amount of 1 was needed, and the reaction time of 1 with hemoglobin was faster than NEM and 5HMF.

hemoglobin = target: T1, hemoglobin (Homo sapiens, UniProt P68871+P69905); experiment: Hemoglobin oxygen-binding assay (oxyHb %, plate format); type: biochemical; details: effector to hemoglobin tetramer 6 to 1 (mol/mol)
T1 construct: from tissue; host or cells: outdated donated human red blood cells (hemolysate supernatant, dialysed against DPBS)
Experimental: Test compounds (0.75 μL, 10 mM in DMSO) were added to the central area of two 384 deep well plates forming compound plates. DPBS was used as the solvent for myo-inositol hexaphosphate (IHP) and N-ethylmaleimide (NEM) (10 mM). To prevent oxidation of hemoglobin during the experiment, glucose-6-phosphate (0.4 mg/mL), glucose-6-phosphate dehydrogenase (1.0 U/mL), nicotinamide adenine dinucleotide phosphate (NADP, 0.05 mg/mL), ferredoxin (0.01 mg/mL), ferredoxin-NADP reductase (0.01 U/mL) and catalase (2×10^3 U/mL) were added to hemoglobin to produce the Hayashi reducing system, which is described in detail in Hayashi et al., Biochemica et Biophysica Acta, 1973, 310, 309-316. […]
The alteration of hemoglobin's oxygen-binding affinity by the test compounds binding to hemoglobin was evaluated in an environment where the fractional oxygen pressure (FO2) could be precisely measured and controlled. […] To confirm the allosteric effect of the test compounds, ODC of hemoglobin was measured in the presence and absence of each compound. […]
The ability of small molecules to alter the oxygen affinity of hemoglobin was determined by measuring the fraction of oxygenated hemoglobin (oxyHb %) and oxidized hemoglobin (metHb %) using spectrophotometry under three (high, medium, and low oxyHb saturation) conditions. […]

whole blood = experiment: ODC (P50) of whole blood; details: 6:1 molar ratio of compound to hemoglobin (120 μM)
Experimental: The ODC of hemoglobin was measured with a HEMOX analyzer (TCS Scientific Corporation) at 37° C. For experiments with purified hemoglobin, hemoglobin (20 μM as tetramer) was dissolved in DPBS and antifoam (0.2 vol %, Catalog No. AFA-25, TCS Scientific Corporation) was added to prevent foaming of the sample. Compounds were prepared in DMSO stock solutions then added to hemoglobin. […] For experiments with RBCs, blood was drawn from volunteers into EDTA tubes. The blood was centrifuged for 15 min at 3,000 rpm at 4° C. The supernatant was discarded, and RBCs were washed three times with DPBS, pH 7.4 by dilution to 50% hematocrit.

[1] = tested on: red blood cells from sickle cell disease patients (SRBCs); details: reported value; cited from earlier work

T1 sequence (P68871 2-147 limits assumed): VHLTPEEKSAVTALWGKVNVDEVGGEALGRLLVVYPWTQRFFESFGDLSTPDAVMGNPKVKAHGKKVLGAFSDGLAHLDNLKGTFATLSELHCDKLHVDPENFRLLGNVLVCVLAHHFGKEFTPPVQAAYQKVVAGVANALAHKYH
T1 sequence (P69905 2-142 limits assumed): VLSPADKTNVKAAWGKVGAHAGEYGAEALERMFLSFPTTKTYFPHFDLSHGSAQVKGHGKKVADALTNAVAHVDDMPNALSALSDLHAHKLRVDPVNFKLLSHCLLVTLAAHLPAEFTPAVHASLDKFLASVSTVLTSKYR

CCN1C(=O)C=CC1=O [NEM, N-ethylmaleimide]
P50 of red blood cells (red blood cells; 400 μM): 8 Torr
change of oxyHb % (hemoglobin): increase
P50 of whole blood (whole blood): 20±1.1 Torr

O=Cc1ccc(CO)o1 [Compound 5-HMF, 5-(Hydroxymethyl)furfural]
P50 of red blood cells (red blood cells; 2 mM): 9 Torr
P50 of RBCs (red blood cells; Compound 1 at 120 μM (6:1 to Hb tetramer), HEMOX solution, 5 vol % DMSO, 10 min at 37° C.): 27±0.5 Torr
concentration required to reduce sickling of hypoxic SS RBCs by nearly 90% [1]: 5 mM
P50 of whole blood (whole blood): 26±0.5 Torr

O=P(O)(O)O[C@H]1[C@H](OP(=O)(O)O)[C@@H](OP(=O)(O)O)[C@H](OP(=O)(O)O)[C@@H](OP(=O)(O)O)[C@H]1OP(=O)(O)O [IHP, myo-inositol hexaphosphate]
change of oxyHb % (hemoglobin): decrease

Reference: patent publication US10758569B2, “Heteroaryl disulfide compounds as allosteric effectors for increasing the oxygen-binding affinity of hemoglobin” (The General Hospital Corporation, priority 2014, dated 2020)
